Marks after values point to notes of the source that are not given here.
What was measured:
BDF1 mice = assay: (C) TNBS-induced colitis in mice; format: in vivo, mouse; set-up: TNBS Ulcer grade / TNBS LP inflammation: scale not given here; details: 2 days; for TNBS LP inflammation / TNBS Ulcer grade: mice
Procedure: Non-fasted, 10-12 week old, male BDF1 mice are dosed by oral gavage twice daily with either vehicle (5 mL/kg), reference item (Budesonide 2.5 mg/kg) or test compound (1, 5 or 50 mg/kg) one day before (Day −1) stimulation of the inflammatory response by treatment with 2,4,6-trinitrobenzenesulphonic acid (TNBS) (15 mg/mL in 50% ethanol/50% saline). On Day 0 of the study TNBS (200 μL) is administered intra-colonically via a plastic catheter followed by BID dosing of the vehicle, reference or test compound for 2 or 4 days. During the study animals are weighed every day and stool observations are made and recorded as a score, based on stool consistency. At the time of sacrifice on Day 2 (or Day 4) the large intestine is removed and the length and weight recorded. Sections of the colon are taken for either MPO analysis to determine neutrophil infiltration or for histopathology involving scoring to determine disease severity.

SCID mice = assay: (D) Adoptive transfer in mice; format: in vivo, mouse
Procedure: On Study day 0, female Balb/C mice are terminated and spleens obtained for CD45RB^high cell isolation (Using SCID IBD cell Separation protocol). Approximately 4×10^5 cells/mL CD45RB^high cells are then injected IP (100 μL/mouse) into female SCID animals. On study day 14, mice are weighed and randomized into treatment groups based on body weight. On Day 21, compounds are administered BID, via oral gavage, in a peanut oil vehicle at the dose levels outlined below and a dose volume of 5 mL/kg. Treatment continues until study day 42, at which point the animals are necropsied 4 hours after am administration. The colon length and weight is recorded and used as a secondary endpoint in the study as a measurement of colon oedema. The colon is then divided into six cross-sections, four of which are used for histopathology scoring (primary endpoint) and two are homogenised for cytokine analysis. Data shown is the % inhibition of the induction window between naïve animals and vehicle animals, where higher inhibition implies closer to the non-diseased, naïve, phenotype.

B-Raf (V600e) = B-Raf (V600e) (Homo sapiens (Human), UniProt P15056, V600E); assay: Enzyme binding assay (KINOMEscan)
B-Raf (V600e), sequence (P15056 whole entry V600E): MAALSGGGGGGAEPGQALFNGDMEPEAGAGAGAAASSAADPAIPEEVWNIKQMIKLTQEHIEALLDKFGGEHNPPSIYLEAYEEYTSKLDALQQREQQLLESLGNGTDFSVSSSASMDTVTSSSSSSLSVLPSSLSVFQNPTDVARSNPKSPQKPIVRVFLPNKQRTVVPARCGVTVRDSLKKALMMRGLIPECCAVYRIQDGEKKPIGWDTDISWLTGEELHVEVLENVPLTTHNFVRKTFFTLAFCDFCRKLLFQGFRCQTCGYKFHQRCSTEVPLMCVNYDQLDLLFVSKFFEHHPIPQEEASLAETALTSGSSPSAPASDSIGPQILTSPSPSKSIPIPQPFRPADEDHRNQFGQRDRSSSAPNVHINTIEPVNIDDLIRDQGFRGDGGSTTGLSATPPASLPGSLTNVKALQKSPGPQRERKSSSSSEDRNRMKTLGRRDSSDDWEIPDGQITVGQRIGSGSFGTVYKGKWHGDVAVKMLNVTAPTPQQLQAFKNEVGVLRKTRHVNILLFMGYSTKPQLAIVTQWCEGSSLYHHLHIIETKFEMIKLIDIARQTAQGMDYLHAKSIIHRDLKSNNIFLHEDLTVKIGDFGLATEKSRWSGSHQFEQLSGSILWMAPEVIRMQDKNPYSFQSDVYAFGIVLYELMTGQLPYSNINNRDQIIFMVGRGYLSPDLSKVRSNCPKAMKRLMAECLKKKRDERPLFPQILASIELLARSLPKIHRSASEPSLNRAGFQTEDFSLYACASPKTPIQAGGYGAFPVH
Procedure: The kinase enzyme binding activities of compounds disclosed herein were determined using a proprietary assay which measures active site-directed competition binding to an immobilized ligand (Fabian, M. A. et al., Nature Biotechnol., 2005, 23:329-336). These assays were conducted by DiscoverX (formerly Ambit; San Diego, Calif.). The percentage inhibition produced by incubation with a test compound is calculated relative to the non-inhibited control.

[1] = system: 71 receptors and 26 enzymes; assay: Diversity Profile (Cerep); format: binding; details: 300 nM
Procedure: Studies were conducted by Cerep (Celle-Lévescault, France) to investigate the binding of the compound of Example 77 to a diverse selection of receptors and to investigate either the inhibition or activation of a selection of enzymes (the “Diversity Profile” comprising a total of 71 receptors and 26 enzymes).

[2] = system: β-catenin in d-U937 cells; assay: (m) Accumulation of β catenin in d-U937 cells; format: cell-based, human
Outline: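 PMA-differentiated U937 macrophage-type cells (100 ng/mL, 48–72 hr) were exposed to test compound or vehicle for 18 hr, then fixed. β-catenin was measured by cell ELISA (HRP/TMB, OD450-655) and normalised to crystal violet OD595. Signals below 15% of the standard control were designated "-ve".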

C#Cc1cc(Nc2nccc(Oc3ccc(NC(=O)Nc4cc(C(C)(C)C)nn4-c4ccc(OC)cc4)c4ccccc34)n2)cc(C(=O)NCCN2CCOCC2)c1 [Example 77, 3-((4-((4-(3-(3-(tert-Butyl)-1-(4-methoxyphenyl)-1H-pyrazol-5-yl)ureido)-naphthalen-1-yl)oxy)pyrimidin-2-yl)amino)-5-ethynyl-N-(2-morpholinoethyl)benzamide]
histopathology analysis, in vivo model of colonic inflammation (BDF1 mice; TNBS-induced colitis, dosed orally at 5 mg/kg): significant activity
TNBS LP inflammation (BDF1 mice; 1 mg/kg oral BID): 2.4 ± 0.3
TNBS Ulcer grade (BDF1 mice; 1 mg/kg oral BID): 3.1 ± 0.5
TNBS LP inflammation (BDF1 mice; 5 mg/kg oral BID): 2.1 ± 0.3
TNBS Ulcer grade (BDF1 mice; 5 mg/kg oral BID): 2.4 ± 0.5
ratio of colon weight:length and relative inhibition of cytokine release (SCID mice; adoptive transfer model of colonic inflammation): significant activity
% inhibition of IL-8 release (SCID mice; adoptive transfer mouse model, 5 mg/kg BID oral): 68%
% Inhibition of colon weight:length (SCID mice; adoptive transfer mouse model, 5 mg/kg BID oral, P < 0.05 ANOVA to vehicle): 51%*
effect on the binding of the kinase B-Raf (V600e) to its standard ligand (B-Raf (V600e)): did not have any effect
inhibition of the control specific binding in the receptor binding assays or enzyme assays [1]: less than 25%
% β-catenin induction ([2]; 1 μg/mL test compound): 1%
% β-catenin induction ([2]; 5 μg/mL test compound): 0%
% β-catenin induction ([2]; 10 μg/mL test compound): −8%
